Tests used:
[1] = tested on: MRC-5, lung fibroblast cells; assay: CCK-8 cytotoxicity assay, MRC5; format: cell-based, human; details: for IC50: Homo sapiens, MRC5 non-cancerous cells, 48h, CCK-8
Source text: (§1) The cytotoxic effects of the newly synthesized diphenyl(tetrahydro-5H-indeno[2,1-c]quinolin-2-yl)phosphine oxides 8, diphenyl(7H-indeno[2,1-c]quinolin-2-yl)phosphine oxides 9, and diphenyl(7-oxo-7H-indeno[2,1-c]quinolin-2-yl)phosphine oxides 10 derivatives were studied against several human cell lines: A549 (carcinomic human alveolar basal epithelial cell), SKOV3 (human ovarian carcinoma), and HEK293 (human embryonic kidney). Furthermore, in order to analyze the selective cytotoxicity facing exclusively cancerous cell lines, toxicity against a non-cancerous cell line (MRC-5, lung fibroblast cells) was also evaluated (Table 3). The cell counting kit (CCK-8) assay was employed to assess the growth inhibition and cell proliferation inhibitory activities of the compounds, which are described in Table 3 as IC50 values.
(§2) Cells were cultured according to the supplier’s instructions. Cells were seeded in 96-well plates at a density of 1.5–3 × 10^3 cells per well and incubated overnight in 0.1 mL of media supplied with 10% Fetal Bovine Serum (Lonza) in a 5% CO2 incubator at 37 °C. On day 2, drugs were added and the samples were incubated for 48h. After treatment, 10 μL of the cell counting kit-8 was added into each well for an additional 2h incubation at 37 °C. The absorbance of each well was determined by an Automatic Elisa Reader System at 450 nm wavelength (deducting 620 nm). CPT was used as the positive control.

[2] = tested on: SKOV3 (human ovarian carcinoma); assay: CCK-8 cytotoxicity assay, SKOV3; format: cell-based; details: SK-OV-3, SKOV3 cells, 48h
Source text: as §1, §2

[3] = tested on: HEK293 (human embryonic kidney); assay: CCK-8 cytotoxicity assay, HEK293; format: cell-based; details: HEK293 cells, 48h
Source text: as §1, §2

[4] = tested on: A549 (carcinomic human alveolar basal epithelial cell); assay: CCK-8 cytotoxicity assay, A549; format: cell-based; details: for IC50: A549 cells, 48h, CCK-8
Source text: as §1, §2

human TOP1 [5] = biological target: T1, human TOP1 (Homo sapiens, UniProt P11387); assay: TOP1 supercoiled plasmid DNA relaxation assay; format: biochemical; details: for TOP1 Inhibition 1 min: 1 min reaction; for TOP1 Inhibition 1 min / TOP1 Inhibition 3 min / TOP1 Inhibition 5 min: compounds at 100 μM, semiquantitative; for TOP1 Inhibition 3 min: 3 min reaction; for TOP1 Inhibition 5 min: 5 min reaction; for Persistence of TOP1 inhibition over the time course: 100 μM, in words
T1 construct: made in house; host or cells: Saccharomyces cerevisiae TOP1 null strain RS190, plasmid pHT143 (GAL promoter)
T1 sequence (P11387 1-765): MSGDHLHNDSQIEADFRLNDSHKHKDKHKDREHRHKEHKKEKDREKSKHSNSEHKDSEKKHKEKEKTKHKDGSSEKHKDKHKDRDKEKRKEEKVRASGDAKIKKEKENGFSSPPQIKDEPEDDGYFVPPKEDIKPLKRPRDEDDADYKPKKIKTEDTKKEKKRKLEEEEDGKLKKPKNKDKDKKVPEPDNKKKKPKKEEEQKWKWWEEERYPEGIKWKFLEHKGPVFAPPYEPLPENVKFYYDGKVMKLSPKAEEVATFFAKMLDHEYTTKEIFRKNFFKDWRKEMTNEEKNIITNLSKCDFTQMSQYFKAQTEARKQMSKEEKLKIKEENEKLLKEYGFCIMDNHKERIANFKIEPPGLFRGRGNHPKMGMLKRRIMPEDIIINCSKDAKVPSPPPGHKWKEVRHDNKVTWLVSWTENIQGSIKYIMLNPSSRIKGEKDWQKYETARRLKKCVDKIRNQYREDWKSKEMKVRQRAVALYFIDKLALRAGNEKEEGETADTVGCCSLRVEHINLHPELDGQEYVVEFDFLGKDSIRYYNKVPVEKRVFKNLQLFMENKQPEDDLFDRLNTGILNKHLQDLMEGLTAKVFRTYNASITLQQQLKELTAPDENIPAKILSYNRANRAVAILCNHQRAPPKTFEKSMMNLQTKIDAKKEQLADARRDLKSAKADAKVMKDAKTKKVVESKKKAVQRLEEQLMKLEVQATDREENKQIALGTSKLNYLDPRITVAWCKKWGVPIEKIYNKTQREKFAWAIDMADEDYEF
Source text: The effect of the previously prepared compounds as TOP1 inhibitors was studied. A conventional supercoiled plasmid relaxation assay was used to determine if the newly fused tetrahydroindenoquinolines 8, more aromatic indenoquinolines 9, and carbonyl derivatives 10 with phosphine oxide substituents inhibit human TOP1 activity by converting supercoiled plasmid DNA to its relaxed form. In these experiments, compound samples were mixed with the enzyme followed by the addition of a supercoiled plasmid DNA substrate, and incubation continued for increasing time intervals (1 min, 3 min, and 5 min). The reaction was terminated by the addition of SDS. DNA relaxation products were then resolved by 1% agarose electrophoresis gel and visualized by gel red staining.
The yeast Saccaromyces cerevisiae TOP1 null strain RS190, which was used for the expression of recombinant human TOP1, was a kind gift from R. Sternglanz (State University of New York, Stony Brook, NY, USA). Plasmid pHT143, for the expression of recombinant TOP1 under the control of an inducible GAL promoter, was described. The plasmids pHT143 were transformed into the yeast S. cerevisiae strain RS190. The proteins were expressed and purified by affinity chromatography essentially as described. The protein concentrations were estimated from Coomassie blue-stained SDS/polyacrylamide gels by comparison to serial dilutions of bovine serum albumin (BSA).
TOP1 activity was assayed using a DNA relaxation assay by incubating 110 ng/mL of TOP1 with 0.5 µg of negatively supercoiled pUC18 in […] of reaction buffer (20 mM Tris HCl, 0.1 mM Na2EDTA, 10 mM MgCl2, […] acetylated BSA, and 150 mM KCl, pH 7.5). The effect of the synthesized phosphorylated derivatives 8, 9, and 10 on the TOP1 activity was measured by adding different concentrations of the compounds, at different time points, as indicated in the text. The reactions were performed at 37 °C stopped by the addition of 0.5% SDS after the indicated time intervals. The samples were protease-digested and electrophoresed in a horizontal 1% agarose gel in 1xTBE (50 mM Tris, 45 mM boric acid, 1 mM EDTA) at 25V during 18h. The gel was stained with gel red (BIOTIUM, 5 mg/mL), destained with water, and photographed under UV illumination. Since all drugs were dissolved in dimethyl sulfoxide (DMSO), a […] control sample containing the same DMSO concentration as the samples incubated with the drugs was included in all experiments.

human TOP1 [6] = biological target: T1, human TOP1; assay: TOP1 supercoiled plasmid DNA relaxation assay; format: biochemical; details: 30 min reaction; compounds at 100 μM; semiquantitative

Row | Structure (SMILES) | IC50 [1] | IC50 [2] | IC50 [3] | IC50 ([4]; Homo sapiens, A549, 48 h) | TOP1 Inhibition 1 min (human TOP1 [5]) | TOP1 Inhibition 3 min (human TOP1 [5]) | TOP1 Inhibition 5 min (human TOP1 [5]) | Persistence of TOP1 inhibition over the time course (human TOP1 [5]) | Cytotoxicity against A549 (in words) [4] | IC50 ([4]; listed as 9k) | Cytotoxicity against MRC5 (in words) ([1]; non-cancerous cell line) | TOP1 Inhibition 30 min (human TOP1 [6])
1 | O=P(c1ccccc1)(c1ccccc1)c1ccc2c(c1)C1c3ccccc3CC1C(c1ccc(F)c(F)c1)N2 (centres unmarked) [Compound 8e, Diphenyl(6-(3,4-difluorophenyl)-6,6a,7,11b-tetrahydro-5H-indeno[2,1-c]quinolin-2-yl)phosphine oxide] | > 50 µM | 13.2 ± 2.79 µM | > 50 µM | > 50 µM | ++ | ++ | ++ | – | – | – | – | –
2 | O=P(c1ccccc1)(c1ccccc1)c1ccc2nc(-c3ccc(F)cc3)c3c(c2c1)-c1ccccc1C3 [Compound 9c] | > 50 µM | > 50 µM | > 50 µM | > 50 µM | + (weak inhibition) | + (weak inhibition) | + (weak inhibition) | – | – | – | – | –
3 | O=P(c1ccccc1)(c1ccccc1)c1ccc2nc(-c3ccccc3)c3c(c2c1)-c1ccccc1C3 [Compound 9a, Diphenyl(6-phenyl-7H-indeno[2,1-c]quinolin-2-yl)phosphine oxide] | > 50 µM | > 50 µM | > 50 µM | > 50 µM | + (weak inhibition) | ++ | ++ | more persistent inhibition | – | – | – | –
4 | O=P(c1ccccc1)(c1ccccc1)c1ccc2nc(-c3ccc(F)cc3F)c3c(c2c1)-c1ccccc1C3 [Compound 9f, Diphenyl(6-(2,4-difluorophenyl)-7H-indeno[2,1-c]quinolin-2-yl)phosphine oxide] | > 50 µM | > 50 µM | > 50 µM | 41.7 ± 7.25 µM | ++ | ++ | ++ | – | slight cytotoxicity | – | – | –
5 | O=P(c1ccccc1)(c1ccccc1)c1ccc2nc(-c3ccc(Br)cc3)c3c(c2c1)-c1ccccc1C3 [Compound 9j, Diphenyl(6-(4-bromophenyl)-7H-indeno[2,1-c]quinolin-2-yl)phosphine oxide] | > 50 µM | > 50 µM | > 50 µM | 42.3 ± 2.09 µM | + (weak inhibition) | + (weak inhibition) | + (weak inhibition) | – | slight cytotoxicity | > 50 µM | – | –
6 | COc1ccc(-c2nc3ccc(P(=O)(c4ccccc4)c4ccccc4)cc3c3c2Cc2ccccc2-3)cc1 [Compound 9h, Diphenyl(6-(4-methoxyphenyl)-7H-indeno[2,1-c]quinolin-2-yl)phosphine oxide] | – | – | – | – | ++ | ++ | ++ | – | – | – | – | –
7 | O=P(c1ccccc1)(c1ccccc1)c1ccc2c(c1)C1c3ccccc3CC1C(c1cccc(F)c1)N2 (centres unmarked) [Compound 8d, Diphenyl(6-(3-fluorophenyl)-6,6a,7,11b-tetrahydro-5H-indeno[2,1-c]quinolin-2-yl)phosphine oxide] | > 50 µM | > 50 µM | > 50 µM | 43.1 ± 12.1 µM | ++ | ++ | ++ | – | – | – | – | –
8 | O=P(c1ccccc1)(c1ccccc1)c1ccc2c(c1)C1c3ccccc3CC1C(c1ccc(F)cc1F)N2 (centres unmarked) [Compound 8f, Diphenyl(6-(2,4-difluorophenyl)-6,6a,7,11b-tetrahydro-5H-indeno[2,1-c]quinolin-2-yl)phosphine oxide] | > 50 µM | 31 ± 3.17 µM | > 50 µM | > 50 µM | + (weak inhibition) | + (weak inhibition) | + (weak inhibition) | – | – | – | – | –
9 | O=C1c2ccccc2-c2c1c(-c1cccc(F)c1)nc1ccc(P(=O)(c3ccccc3)c3ccccc3)cc21 [Compound 10d, (6-(3-Fluorophenyl)-7-oxo-7H-indeno[2,1-c]quinolin-2-yl)diphenylphosphine oxide] | > 50 µM | > 50 µM | > 50 µM | > 50 µM | + (weak inhibition) | + (weak inhibition) | + (weak inhibition) | – | – | – | – | –
10 | O=C1c2ccccc2-c2c1c(-c1ccc(F)c(F)c1)nc1ccc(P(=O)(c3ccccc3)c3ccccc3)cc21 [Compound 10e] | > 50 µM | > 50 µM | > 50 µM | > 50 µM | ++ | ++ | ++ | – | – | – | – | –
11 | O=P(c1ccccc1)(c1ccccc1)c1ccc2nc(-c3cccc(F)c3)c3c(c2c1)-c1ccccc1C3 [Compound 9d, Diphenyl(6-(3-fluorophenyl)-7H-indeno[2,1-c]quinolin-2-yl)phosphine oxide] | > 50 µM | > 50 µM | > 50 µM | > 50 µM | + (weak inhibition) | + (weak inhibition) | + (weak inhibition) | – | – | – | – | –
12 | CC[C@@]1(O)C(=O)OCc2c1cc1n(c2=O)Cc2cc3ccccc3nc2-1 [CPT, camptothecin, reference compound] | 0.11 ± 0.02 µM | 0.0055 µM | – | 0.001 µM | ++ | − (no inhibition) | − (no inhibition) | short-term reversible effect | – | – | high toxicity | − (no inhibition)

From paper PMC11678328, “Phosphine Oxide Indenoquinoline Derivatives: Synthesis and Biological Evaluation as Topoisomerase I Inhibitors and Antiproliferative Agents” (Molecules, 2024)
